Values quoted from earlier work in article PMC7275090, “Mode of action of teixobactins in cellular membranes” (Nature Communications, 2020).

System: bacteria
Conditions: cited from earlier work

Teixobactin
antibacterial activity: excellent activity
